Laboratory results published in patent publication US20060110401A1, “Mixture of peptides from c and ns3 proteins of the hepatitis c virus and applications thereof” (priority 2002, published 2006).
Like-named read-outs stand apart in the source and are kept apart here. Residues, ends and D or L forms follow the SMILES beside them.

How the values were obtained:
[1] = system: DRB3; test: DRB3
[2] = system: splenocytes from mice transgenic for the human HLA-DR1 molecules; test: Proliferation assay with splenocytes of immunized HLA-DR1 transgenic mice; type: in vivo; details: 25 μg of single peptide in montanide, subcutaneous, two injections; restimulation 5 μg/ml; FIG. 4A
Description: The ability of the peptides having good affinity for the HLA II molecules, as defined above, to induce an immune response was evaluated by means of an in vitro proliferation assay in mice transgenic for HLA-DR1 molecules (Wilkinson et al., Infect. Immunity, 1999, 67, 1501-; Rosloniec et al., J. Exp. Med., 1997, 185, 1113-), pre-immunized with these peptides.
15 days later, a second injection was given under the same conditions. Ten days after the second injection, the animals were sacrificed and their spleen was removed. The splenocytes were cultured in HL-1 medium (Biowhittaker) supplemented with 1% of mouse serum, in the presence of 5 μg/ml of each of the peptides used for the injection, or in the absence of peptide. After 4 days of culture, 1 μCi of tritiated thymidine (Amersham, Life Technologies) was added for 16 h. The tritiated thymidine incorporation was then measured using a beta-counter (Microbeta 1450, Perkin Elmer). The results are expressed as a proliferation index (number of CPM in the presence of peptide/number of CPM in the absence of peptide).

[3] = system: DR7; test: DR7
[4] = system: DR11; test: DR11
Description: (§1) Table printed on a drawing sheet, Figure 2
(§2) Where the first naming reader finds the target: head: DR11

[5] = system: DR15; test: DR15
[6] = system: DR3; test: DR3
Description: as §1
Where the first naming reader finds the target: head: DR3

[7] = system: DRB4; test: DRB4
Description: as §1
Where the first naming reader finds the target: head: DRB4

[8] = target: T1, HLA-DR1 (DRB1*0101) (Homo sapiens, UniProt P01903+P01911, A100R/D57E/F55L/F60I/F76Y/I96L/L162R/M171V/P40L/Q125E/R42F/V115G/Y59C); test: biochemical; type: binding; details: for IC50: DRB1*0101
T1 construct: endogenous in cells; host or cells: homozygous EBV-transformed human B lymphocyte lines; immunopurified with antibody L243

[9] = system: DRB5; test: DRB5
[10] = system: DR13; test: DR13
Description: as §1
Where the first naming reader finds the target: head: DR13

[11] = system: DR4; test: DR4
[12] = target: T2, HLA-DRB3 (DRB3*0101) (Homo sapiens, UniProt P01903+P79483); test: HLA II/peptide binding assay, HLA-DRB3; details: read-out: binds with good affinity to DRB3
T2 construct: endogenous in cells; host or cells: homozygous EBV-transformed human B lymphocyte lines; immunopurified with antibody L243

[13] = target: HLA-DR11 (DRB1*1101) (Homo sapiens, UniProt P01903+P01911, A100R/A169T/A87E/I96F/K41T/L162R/M171V/P40S/Q125H/Q178H/Q39Y/Q99D/R42S/S66Y/T262R/V115G/W38E); test: biochemical; type: binding; details: read-out: binds with good affinity to DR11
Sequence of HLA-DR11 (DRB1*1101) (P01903 26-254 limits assumed, other chains not shown): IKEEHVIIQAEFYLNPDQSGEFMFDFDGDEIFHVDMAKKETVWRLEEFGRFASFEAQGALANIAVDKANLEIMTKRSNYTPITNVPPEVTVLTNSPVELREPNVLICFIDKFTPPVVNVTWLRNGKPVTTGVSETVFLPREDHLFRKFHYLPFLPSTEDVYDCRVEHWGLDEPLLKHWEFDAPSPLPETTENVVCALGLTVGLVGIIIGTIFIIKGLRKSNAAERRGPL

[14] = target: T3, HLA-DR15 (DRB1*1501) (Homo sapiens, UniProt P01903+P01911); test: biochemical; type: binding; details: DRB1*1501; read-out: binds with good affinity to DR15
T3 construct: endogenous in cells; host or cells: homozygous EBV-transformed human B lymphocyte lines; immunopurified with antibody L243

[15] = target: HLA-DR7 (DRB1*0701) (Homo sapiens, UniProt P01903+P01911, A100R/A102G/A103Q/D57E/D86V/E43K/F76Y/K127E/L162R/M171V/P40G/Q125H/Q99D/R33Q/R42Y/R54Q/S133A/S66F/T210M/V115G/Y107V/Y59L/Y89S); test: biochemical; type: binding; details: read-out: binds with good affinity to DR7
[16] = system: DP401; test: DP401
[17] = target: HLA-DP401 (DPB1*0401) (Homo sapiens, UniProt P04440+P20036); test: biochemical; type: binding; details: DP*0401; read-out: binds with good affinity to DP401
[18] = system: DR1; test: DR1
[19] = target: T4, HLA-DR4 (DRB1*0401) (Homo sapiens, UniProt P01903+P01911, A100K/A169T/F76Y/I96L/K127E/L162R/M171V/N62H/P40V/Q125Y/R42H/S133A/S149N/S66Y/V115G/V209L/W38E); test: biochemical; type: binding; details: read-out: binds with good affinity to DR4
T4 construct: endogenous in cells; host or cells: homozygous EBV-transformed human B lymphocyte lines; immunopurified with antibody L243

[20] = system: DP402; test: DP402
[21] = system: DR11; test: DR11; remark: listed apart in the source
Description: (§3) Table printed on a drawing sheet, Figure 3
(§4) The patent's description of the figure: FIG. 3 illustrates the binding activity, with respect to the HLA II molecules that are predominant in the Caucasian population, of a second series of peptides of the C and NS3 proteins, derived from the first series. The values correspond to the IC50 values, expressed in nM.
(§5) First copying reader's note: The sheet prints no unit; blank spacer lines between peptide groups are left out, and the Nb head is printed slightly left of its column.; the cell N1056-1070 / DR15 is printed empty.; the cell N1056-1070 / DR15 is printed empty.
as §2

[22] = system: DR7; test: DR7; remark: listed apart in the source
Description: as §3, §4, §5
Where the first naming reader finds the target: head: DR7

[23] = system: DR15; test: DR15; remark: listed apart in the source
Description: as §3, §4, §5
Where the first naming reader finds the target: head: DR15

[24] = system: DR4; test: DR4; remark: listed apart in the source
Description: as §3, §4, §5
Where the first naming reader finds the target: head: DR4

[25] = system: DP401; test: DP401; remark: listed apart in the source
Description: as §3, §4, §5
Where the first naming reader finds the target: head: DP401

[26] = system: DR1; test: DR1; remark: listed apart in the source
Description: as §3, §4, §5
Where the first naming reader finds the target: head: DR1

[27] = system: DRB5; test: DRB5; remark: listed apart in the source
Description: as §3, §4, §5
Where the first naming reader finds the target: head: DRB5

Q: Which IC50 [1] does the source give for `CC(C)C[C@H](NC(=O)[C@H](C)NC(=O)[C@H](CCCNC(=N)N)NC(=O)[C@H](C)N)C(=O)N[C@@H](C)C(=O)N[C@@H](Cc1c[nH]cn1)C(=O)NCC(=O)N[C@H](C(=O)N[C@@H](CCCNC(=N)N)C(=O)N[C@H](C(=O)N[C@@H](CC(C)C)C(=O)N[C@@H](CCC(=O)O)C(=O)N[C@@H](CC(=O)O)C(=O)NCC(=O)N[C@H](C(=O)N[C@@H](CC(N)=O)C(=O)N[C@@H](Cc1ccc(O)cc1)C(=O)N[C@@H](C)C(=O)N[C@H](C(=O)NCC(=O)N[C@@H](CC(N)=O)C(=O)N[C@@H](CC(C)C)C(=O)N1CCC[C@H]1C(=O)NCC(=O)N[C@@H](C)C(=O)N[C@@H](CO)C(=O)O)[C@@H](C)O)C(C)C)C(C)C)C(C)C` [6C 148-173] (H-ARALAHGVRVLEDGVNYATGNLPGAS-OH; N-terminus and C-terminus assumed) here?
A: The IC50 was 4.83 µM.

Q: What about the “immune response (splenocyte proliferation index)” value [2] of the same molecule?
A: The value was “do not induce any effect”.

Q: What about the IC50 [3] of the same molecule?
A: Its IC50 is 3.17 µM.

Q: What about the IC50 [4] of the same molecule?
A: The IC50 was 4.33 µM.

Q: And the IC50 [5]?
A: Its IC50 is 6.67 µM.

Q: And the IC50 [6]?
A: The IC50 was 3.5 µM.

Q: What about the IC50 [7] of the same molecule?
A: The IC50 was 27.5 µM.

Q: And the IC50 ([8]; competition with biotinylated tracer HA 306-318, read-out: IC50, binding to HLA-DR1)?
A: Its IC50 is 10 µM.

Q: What about the “affinity for HLA-DR1 (in words)” value ([8]; legend of FIG. 4) of the same molecule?
A: Its value is “low affinity”.

Q: What about the IC50 [9] of the same molecule?
A: The IC50 was 4.33 µM.

Q: What about the IC50 [10] of the same molecule?
A: Its IC50 is 9.5 µM.

Q: And the IC50 [11]?
A: The IC50 was 0.03 µM.

Q: Which results are given for `CC[C@H](C)[C@H](NC(=O)[C@H](CC(N)=O)NC(=O)[C@@H]1CCCN1C(=O)[C@@H](N)CC(=O)O)C(=O)N[C@@H](CCCNC(=N)N)C(=O)N[C@H](C(=O)NCC(=O)N[C@H](C(=O)N[C@@H](CCCNC(=N)N)C(=O)N[C@H](C(=O)N[C@H](C(=O)N[C@H](C(=O)N[C@H](C(=O)NCC(=O)N[C@@H](CO)C(=O)N1CCC[C@H]1C(=O)N[C@H](C(=O)N[C@H](C(=O)N[C@@H](Cc1ccc(O)cc1)C(=O)N[C@@H](CO)C(=O)N[C@H](C(=O)N[C@@H](Cc1ccc(O)cc1)C(=O)NCC(=O)N[C@@H](CCCCN)C(=O)N[C@@H](Cc1ccccc1)C(=O)N[C@@H](CC(C)C)C(=O)N[C@@H](C)C(=O)N[C@@H](CC(=O)O)C(=O)NCC(=O)NCC(=O)O)[C@@H](C)O)[C@@H](C)O)[C@@H](C)CC)[C@@H](C)O)[C@@H](C)O)[C@@H](C)O)[C@@H](C)O)C(C)C)[C@@H](C)O` [19N 1275-1304] (H-DPNIRTGVRTTTTGSPITYSTYGKFLADGG-OH; N-terminus and C-terminus assumed)?
A: IC50 [1]: 0.15 µM; IC50 [12]: < 1 µM; IC50 [13]: < 1 µM; IC50 [3]: 0.113 µM; IC50 [14]: < 1 µM; IC50 [5]: 0.55 µM; IC50 [15]: < 1 µM; IC50 [16]: 0.548 µM; IC50 [6]: > 100 µM; IC50 [7]: 3.5 µM; IC50 [17]: < 1 µM; IC50 ([8]; read-out: binds with good affinity to DR1): < 1 µM; IC50 [9]: 1.3 µM; IC50 [18]: 0.15 µM; IC50 [19]: < 1 µM; IC50 [10]: > 100 µM; IC50 [20]: 1.82 µM; IC50 [11]: 0.5 µM

Q: GAPLGGAARALAHG [C 141-155] was tested. Which IC50 [21] did it give?
A: The IC50 was 0.49 µM.

Q: And the IC50 [22]?
A: Its IC50 is 11.8 µM.

Q: And the IC50 [23]?
A: The IC50 was 50 µM.

Q: What about the IC50 [24] of the same molecule?
A: The IC50 was 80 µM.

Q: And the IC50 [25]?
A: Its IC50 is 9.49 µM.

Q: And the IC50 [26]?
A: The IC50 was 3.5 µM.

Q: And the IC50 [27]?
A: Its IC50 is 8.33 µM.
